According to patent US20260226084A1, “DUAL RAF AND TUBULIN INHIBITORS AND METHODS OF USE THEREOF” (Deciphera Pharmaceuticals, LLC, priority 2023, published 2026):
Read-outs that look alike come from different tables or passages of the source.

What was measured:
[1] = biological target: T1, B-Raf kinase (SEQ ID NO: 1) (Homo sapiens, UniProt P15056); experiment: Biochemical Assay for B-Raf (coupled pyruvate kinase/lactate dehydrogenase assay); conditions: 1 mM ATP; read-out: BRAF (inhibition of biochemical activity, IC50)
T1 construct: GST (N); purchased Sigma

[2] = biological target: T2, C-Raf kinase (SEQ ID NO: 2) (Homo sapiens, UniProt P04049, Y340D/Y341D); experiment: Biochemical Assay for C-Raf (coupled pyruvate kinase/lactate dehydrogenase assay); conditions: 1 mM ATP; read-out: CRAF (inhibition of biochemical activity, IC50)
T2 construct: C-Raf residues 306-end; Y340D, Y341D with; GST (N); purchased Sigma

MiaPaca-2 cells = experiment: MiaPaca-2 Cell Proliferation Assay; format: cell-based; conditions: Table 2, read-out: Inhibition of cell proliferation in MiaPaca-2 (IC50 class)
Description: Miapaca-2 cells (catalog #CRL-1420) are obtained from the American Type Culture Collect (ATTC, Manassas, VA). Briefly, cells were grown in DMVEM supplemented with 10 characterized fetal bovine serum (Invitrogen, Carlsbad, CA), 2.5% New Zealand sourced horse serum and 1 Penicillin/Streptomycin/L-Glutamine at 37° C., 5 CO2, and 95% humidity. Cells are expanded until reaching 70-95% confluency at which point they are sub-cultured or harvested for assay use. A serial dilution of test compound is dispensed into a 96-well black clear bottom plate in triplicate. Three thousand cells are added per well in 200 μL complete growth medium in the 96-well plate. Plates are incubated for 67 to 72 h at 37° C., 5% CO2, and 95% humidity. At the end of the incubation, 40 μL of a 440 μM solution of resazurin (Sigma, St. Louis, MO) in PBS is added to each well of the plate and plates are incubated for an additional 5 to 6 h at 37° C., 5% CO2, and 95% humidity. Plates are read on a Synergy2 or equivalent reader (Biotek, Winooski VT) using an excitation of 540 nm and an emission of 600 nm. Data is analyzed using Prism software (Graphpad, San Diego, CA) to calculate IC50 values.

HCT-116 cells = experiment: HCT-116 Cell Proliferation Assay; format: cell-based; conditions: Table 2, read-out: Inhibition of cell proliferation in HCT-116 (IC50 class)
Description: HCT-116 cells (catalog #CCL-247) are obtained from the American Type Culture Collect (ATCC, Manassas, VA). Briefly, cells are grown in McCoy's 5A supplemented with 10% characterized fetal bovine serum (Invitrogen, Carlsbad, CA) and 1% Penicillin/Streptomycin/L-Glutamine at 37° C., 5% CO2, and 95% humidity. Cells are expanded until reaching 70-95% confluency at which point they are subcultured or harvested for assay use. A serial dilution of test compound is dispensed into a 384-well black clear bottom plate in triplicate. 375 cells are added per well in 50 μL complete growth medium in the 384-well plate. Plates are incubated for 67 to 72 hours at 37° C., 5% CO2, and 95% humidity. At the end of the incubation, 40 μL of a […] solution of resazurin (Sigma, St. Louis, MO) in PBS is added to each well of the plate and plates are incubated for an additional 4 to 5 h at 37° C., 5% CO2, and 95% humidity. Plates are read on a Synergy2 or equivalent reader (Biotek, Winooski, VT) using an excitation of 540 nm and an emission of 600 nm. Data is analyzed using Prism software (Graphpad, San Diego, CA) to calculate IC50 values.

HPAF-II cells = experiment: HPAF-II Cell Proliferation Assay; format: cell-based; conditions: HPAF-II cells, Table 2, read-out: Inhibition of cell proliferation in HPAF-II (IC50 class)
Description: (§1) HPAF-II cells (catalog #CRL-1997) are obtained from the American Type Culture Collect (ATCC, Manassas, VA). Briefly, cells are grown in Minimum Essential Media supplemented with 10% characterized fetal bovine serum (Invitrogen, Carlsbad, CA) and 1% Penicillin/Streptomycin/L-Glutamine at 37° C., 5% CO2, and 95% humidity. Cells are expanded until reaching 70-95% confluency at which point they are sub-cultured or harvested for assay use. A serial dilution of test compound is dispensed into a 384-well black clear bottom plate in triplicate. 750 cells are added per well in 50 μL complete growth medium in the 384-well plate. Plates are incubated for 115 to 120 hours at 37° C., 5% CO2, and 95% humidity. At the end of the incubation, 40 μL of a 440 μM solution of resazurin (Sigma, St. Louis, MO) in PBS is added to each well of the plate and plates are incubated for an additional 18 to 24 hours at 37° C., 5% CO2, and 95% humidity. Plates are read on a Synergy2 or equivalent reader (Biotek, Winooski, VT) using an excitation of 540 nm and an emission of 600 nm. Data is analyzed using Prism software (Graphpad, San Diego, CA) to calculate IC50 values.

Pa16c cells = experiment: Pa16c Cell Proliferation Assay; format: cell-based; conditions: Table 2, read-out: Inhibition of cell proliferation in Pa16c (IC50 class)
Description: as §1, with “Pa16c” for “HPAF-II”, “cells” for “cells (catalog #CRL-1997)”, “Dr. Channing Der, University of North Carolina at Chapel Hill.” for “the American Type Culture Collect (ATCC, Manassas, VA).”, “Dulbecco's Modified Eagle Medium” for “Minimum Essential Media”, “67” for “115”, “72 h” for “120 hours”

[3] = Homo sapiens, MIA PaCa-2, MiaPaca-2 cells
[4] = Homo sapiens, HCT-116, HCT-116 cells

T1 sequence (P15056 416-766): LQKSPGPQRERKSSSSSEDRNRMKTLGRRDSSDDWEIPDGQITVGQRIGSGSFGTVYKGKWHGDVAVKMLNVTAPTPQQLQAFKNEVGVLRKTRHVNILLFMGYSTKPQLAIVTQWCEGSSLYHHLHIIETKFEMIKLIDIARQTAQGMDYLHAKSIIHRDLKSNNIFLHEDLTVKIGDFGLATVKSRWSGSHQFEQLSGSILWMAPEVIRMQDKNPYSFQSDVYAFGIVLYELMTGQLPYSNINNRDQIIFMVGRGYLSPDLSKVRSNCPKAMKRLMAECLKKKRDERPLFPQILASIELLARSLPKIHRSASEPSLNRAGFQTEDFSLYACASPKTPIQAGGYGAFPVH
T2 sequence (P04049 307-648 Y340D/Y341D): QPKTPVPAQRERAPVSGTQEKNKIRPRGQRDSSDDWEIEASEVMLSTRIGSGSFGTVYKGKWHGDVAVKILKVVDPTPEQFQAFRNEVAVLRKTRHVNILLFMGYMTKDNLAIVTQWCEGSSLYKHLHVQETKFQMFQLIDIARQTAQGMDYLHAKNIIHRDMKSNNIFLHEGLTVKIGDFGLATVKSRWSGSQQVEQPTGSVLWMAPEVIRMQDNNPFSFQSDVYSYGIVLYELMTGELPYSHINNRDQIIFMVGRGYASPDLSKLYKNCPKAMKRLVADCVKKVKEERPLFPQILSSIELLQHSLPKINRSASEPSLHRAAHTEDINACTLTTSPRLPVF

| Compound | IC50 [1] | IC50 [2] | IC50 (MiaPaca-2 cells; [3]) | IC50 (HCT-116 cells; [4]) | IC50 (HPAF-II cells; Homo sapiens, HPAF-II) | IC50 (Pa16c cells) | IC50 (MiaPaca-2 cells; MiaPaca-2 cells) | IC50 (HCT-116 cells; HCT-116 cells) | IC50 (HPAF-II cells) |
| --- | --- | --- | --- | --- | --- | --- | --- | --- | --- |
| Cc1ccc(NC(=O)c2cc(C(F)(F)F)cnn2)cc1-c1ccnc(-c2ccnc(NCC(F)(F)F)c2)c1 [Example 53] | 500 to 1000 nM | 500 to 1000 nM | 100 to 500 nM | 100 to 500 nM | 100 to 500 nM | 1000 to 10000 nM |  |  |  |
| Cc1ccc(NC(=O)c2ccc(C(F)(F)F)nc2)cc1-c1ccnc(-c2ccnc(NC(=O)C3CC3)c2)c1 [Example 79] | < 100 nM | < 100 nM |  |  |  | 100 to 500 nM | 100 to 500 nM | 100 to 500 nM | 100 to 500 nM |
| Cc1ccc(NC(=O)c2cnc(C(F)(F)F)nc2)cc1-c1cc(N[C@H](C)CO)nc(-c2cn[nH]c2)c1 [Example 133] | 100 to 500 nM | < 100 nM | 100 to 500 nM | 100 to 500 nM | 1000 to 10000 nM | 1000 to 10000 nM |  |  |  |
| Cc1ccc(NC(=O)c2cc(C(F)(F)F)cnn2)cc1-c1ccnc(-c2ccnc(NC(=O)C3CNCC3(F)F)c2)c1 (centres unmarked) [Example 92, N-[3-[2-[2-[(4,4-difluoropyrrolidine-3-carbonyl)amino]-4-pyridyl]-4-pyridyl]-4-methyl-phenyl]-5-(trifluoromethyl)pyridazine-3-carboxamide] | < 100 nM | < 100 nM | 100 to 500 nM | 100 to 500 nM | 500 to 1000 nM | 500 to 1000 nM |  |  |  |
| Cc1ccc(NC(=O)c2cc(C(F)(F)F)cnn2)cc1-c1ccnc(-c2ccnc(NC(=O)C3(C)CCC3)c2)c1 [Example 7] | 500 to 1000 nM | 100 to 500 nM | 100 to 500 nM | 100 to 500 nM | 100 to 500 nM | 100 to 500 nM |  |  |  |
| CC(=O)Nc1cc(-c2nccc(-c3cc(NC(=O)c4ccc(C(F)F)nc4)ccc3C)n2)ccn1 [Example 14] | 100 to 500 nM | < 100 nM | 100 to 500 nM |  |  |  |  |  |  |
| CC(=O)Nc1cc(-c2cc(-c3cc(NC(=O)c4ccc(C(F)(F)F)nc4)ccc3C)cn(CCO)c2=O)ccn1 [Example 29] | 1000 to 10000 nM | 1000 to 10000 nM | 1000 to 10000 nM |  |  |  |  |  |  |
| COC(=O)Nc1cc(-c2cc(-c3cc(NC(=O)c4ccc(C(F)(F)F)nc4)cnc3C)ccn2)ccn1 [Example 31] | 1000 to 10000 nM | 100 to 500 nM | 1000 to 10000 nM |  |  |  |  |  |  |
| Cc1ccc(NC(=O)c2ccc(C(F)F)nc2)cc1-c1ccnc(-c2ccnc(NC(=O)C3CC3)c2)c1 [Example 25] | < 100 nM | < 100 nM | 500 to 1000 nM | 100 to 500 nM |  |  |  |  |  |
| Cc1ccc(NC(=O)c2cc(C#N)cnn2)cc1-c1cc(N[C@H](C)CO)nc(-c2cn[nH]c2)c1 [Example 152] | 100 to 500 nM | 100 to 500 nM | < 100 nM | 100 to 500 nM | 500 to 1000 nM |  |  |  |  |
| CC(=O)Nc1cc(-c2cc(-c3cc(NC(=O)c4ccc(C(F)(F)F)nc4)ccc3C)cn(C)c2=O)ccn1 [Example 28] | 100 to 500 nM | < 100 nM | 1000 to 10000 nM |  |  |  |  |  |  |
| Cc1ccc(NC(=O)c2ccc(C(F)(F)F)nc2)cc1-c1cncc(-c2cc(N)ncn2)c1 [Example 73] | 500 to 1000 nM | 500 to 1000 nM | 1000 to 10000 nM |  |  |  |  |  |  |
| COC(=O)Nc1cc(-c2cc(-c3cc(NC(=O)c4ccc(C(F)(F)F)nc4)c(F)cc3C)nc(C)n2)ccn1 [Example 21] | 1000 to 10000 nM | 500 to 1000 nM | < 100 nM |  |  |  |  |  |  |
| Cc1ccc(NC(=O)c2cc(C(F)(F)F)cnn2)cc1-c1ccnc(-c2cnsc2)c1 [Example 132] |  |  | 100 to 500 nM | 100 to 500 nM | 100 to 500 nM | 100 to 500 nM |  |  |  |
| COC(=O)Nc1cc(-c2cccc(-c3cc(NC(=O)c4ccc(C(F)(F)F)nc4)cnc3C)c2)ncn1 [Example 33] | 500 to 1000 nM | < 100 nM | 1000 to 10000 nM |  |  |  |  |  |  |
| COC(=O)Nc1cc(-c2cccc(-c3cc(NC(=O)c4ccc(C(F)(F)F)nc4)cnc3C)c2)ccn1 [Example 32] | 100 to 500 nM | < 100 nM | 500 to 1000 nM |  |  |  |  |  |  |
| COC(=O)Nc1cc(-c2cc(-c3cc(NC(=O)c4ccc(C(F)(F)F)nc4)ccc3C)cc(OCCO)n2)ccn1 [Example 77] | < 100 nM | < 100 nM |  |  |  |  | 1000 to 10000 nM |  |  |
| Cc1ccc(NC(=O)c2cc(C(F)(F)F)cnn2)cc1-c1cc(N[C@H](C)CO)nc(-c2c[nH]nc2N)c1 [Example 153] | 100 to 500 nM | < 100 nM | 100 to 500 nM | 100 to 500 nM | 1000 to 10000 nM |  |  |  |  |
| CC(=O)Nc1cc(-c2cc(-c3cc(NC(=O)c4ccc(C(F)(F)F)nc4)ccc3C)nn(C)c2=O)ccn1 [Example 12] | 1000 to 10000 nM | 1000 to 10000 nM | 1000 to 10000 nM |  |  |  |  |  |  |
| COC(=O)Nc1cc(-c2cncc(-c3cc(NC(=O)c4ccc(C(F)(F)F)nc4)c(F)cc3C)c2)ccn1 [Example 3, methyl (5-(4-fluoro-2-methyl-5-(6-(trifluoromethyl)nicotinamido)phenyl)-[3,4′-bipyridin]-2′-yl)carbamate] | 100 to 500 nM | < 100 nM | < 100 nM | < 100 nM |  |  |  |  |  |
| CC(=O)Nc1cc(-c2cccc(-c3cc(NC(=O)c4ccc(C(F)F)nc4)ccc3C)n2)ccn1 [Example 85] | 100 to 500 nM | < 100 nM | 500 to 1000 nM |  |  |  |  |  |  |
| COC(=O)Nc1cc(-c2nccc(-c3cc(NC(=O)c4ccc(C(F)(F)F)nc4)ccc3C)n2)ccn1 [Example 30] | 1000 to 10000 nM | < 100 nM |  |  |  |  | 1000 to 10000 nM |  |  |
| COC(=O)Nc1cc(-c2cncc(-c3cc(NC(=O)c4ccc(C(F)(F)F)nc4)ccc3C)c2)ccn1 [Example 74] | 100 to 500 nM | < 100 nM | 100 to 500 nM |  |  |  |  |  |  |
| COCC(=O)Nc1cc(-c2cncc(-c3cc(NC(=O)c4ccc(C(F)F)nc4)ccc3C)n2)ccn1 [Example 89] | 1000 to 10000 nM | 100 to 500 nM | 1000 to 10000 nM | 1000 to 10000 nM |  |  |  |  |  |
